pIC50: −log10 of the molar value.
Experiments:
[1] = biological target: T1, full-length human BTK (Homo sapiens, UniProt Q06187); test: Assay A: BTK IC50 Enzyme Assay (microfluidic off-chip mobility shift kinase assay); format: biochemical; conditions: full-length human BTK, kinKDR peptide substrate, incubated 90 min at 27 C; read-out: Assay A (Time Dependent BTK Enzyme Assay IC50)
T1 construct: 2.5× stocks of full-length human BTK (08-080); purchased CarnaBio USA, Inc., Natick, Mass; 08-080
Procedure, shortened: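 Off-chip microfluidic mobility shift assay with full-length human BTK; phosphorylated and unphosphorylated peptide substrate were separated by charge/mass on a LabChip 3000.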

[2] = system: PBMC; test: Assay B: Time Dependent PMBC IC50 Assay; format: cell-based
Description: Assay B: Time Dependent PMBC IC50 Assay
Compounds described by embodiments of the present invention were assayed using a time dependent PMBC assay. The data from the same is recorded in Table 2 within the column labeled: “Time Dependent PBMC Assay IC50.” These IC50 values are reported in ranges wherein: I<1 uM and II>1 uM.

T1 sequence (Q06187 whole entry): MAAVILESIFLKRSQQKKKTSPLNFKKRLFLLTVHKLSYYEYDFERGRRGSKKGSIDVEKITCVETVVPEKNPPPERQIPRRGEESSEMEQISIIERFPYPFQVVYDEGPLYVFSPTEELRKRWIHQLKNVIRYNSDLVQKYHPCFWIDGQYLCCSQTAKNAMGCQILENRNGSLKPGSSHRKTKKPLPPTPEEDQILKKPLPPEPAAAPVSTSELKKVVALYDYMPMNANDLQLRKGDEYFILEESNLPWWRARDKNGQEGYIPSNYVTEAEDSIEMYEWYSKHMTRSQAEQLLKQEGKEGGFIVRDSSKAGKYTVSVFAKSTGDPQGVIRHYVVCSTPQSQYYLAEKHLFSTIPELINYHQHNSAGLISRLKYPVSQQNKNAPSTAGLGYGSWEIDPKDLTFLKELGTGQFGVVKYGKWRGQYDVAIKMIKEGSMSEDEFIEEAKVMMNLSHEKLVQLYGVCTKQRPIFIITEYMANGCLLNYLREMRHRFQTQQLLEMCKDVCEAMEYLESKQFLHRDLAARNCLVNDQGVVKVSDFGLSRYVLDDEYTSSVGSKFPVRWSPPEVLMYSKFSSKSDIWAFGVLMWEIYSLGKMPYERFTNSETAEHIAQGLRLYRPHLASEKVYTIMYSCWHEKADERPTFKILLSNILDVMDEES

| SMILES | pIC50 [1] | pIC50 [2] |
| --- | --- | --- |
| C=CC(=O)N[C@H]1CCN(c2ccc(C(N)=O)c(Nc3ccc(C(=O)N4CC(C)OC(C)C4)cc3)n2)C1 (stereo partly drawn) [Compound 40, 6-((S)-3-Acryloylamino-pyrrolidin-1-yl)-2-[4-(2,6-dimethyl-morpholine-4-carbonyl)-phenylamino]-nicotinamide] | > 7.00 | 6.00 to 7.00 |
| C=CC(=O)N1CCC=C(c2ccc(C(N)=O)c(Nc3ccc(CCN4CCCC4)cc3)n2)C1 [Compound 44, 1′-Acryloyl-6-[4-(2-pyrrolidin-1-yl-ethyl)-phenylamino]-1′,2′,5′,6′-tetrahydro-[2,3′]bipyridinyl-5-carboxylic acid amide] | > 7.00 | 6.00 to 7.00 |
| C=CC(=O)N1CC[C@@H](Nc2ccc(C(N)=O)c(Oc3ccc(Oc4ccccc4)cc3)n2)C1 [Compound 72, 6-((R)-1-Acryloyl-pyrrolidin-3-ylamino)-2-(4-phenoxy-phenoxy)-nicotinamide] |  | > 7.00 |
| C=CC(=O)Nc1cncc(-c2ccc(C(N)=O)c(Oc3ccc(Oc4ccccc4)cc3)n2)c1 [Compound 75, 5′-acrylamido-6-(4-phenoxyphenoxy)-[2,3′-bipyridine]-5-carboxamide] | > 7.00 | > 7.00 |
| C=CC(=O)N[C@H]1CCN(c2cc(Nc3ccc(C(=O)N4CCOCC4)cc3)c(C(N)=O)cn2)C1 [Compound 108, 6-((S)-3-Acryloylamino-pyrrolidin-1-yl)-4-[4-(morpholine-4-carbonyl)-phenylamino]-nicotinamide] | > 7.00 | 6.00 to 7.00 |
| C=CC(=O)N1CCC(c2cnc(C(N)=O)c(NC(C)=O)c2)CC1 [Compound 134] | > 7.00 | 6.00 to 7.00 |
| C=CC(=O)N1CCN(c2ncc(C(N)=O)c(Oc3ccc(Oc4ccccc4)cc3)n2)CC1 [Compound 173, 2-(4-Acryloyl-piperazin-1-yl)-4-(4-phenoxy-phenoxy)-pyrimidine-5-carboxylic acid amide] | > 7.00 | > 7.00 |
| C=CC(=O)N1CCC(c2ccc(C(N)=O)c(Nc3ccc(C(=O)N4CCN(C(=O)CCCCNC(=O)CCOCCOCCOCCOCCNC(=O)CCCCC5SCC6NC(=O)NC65)CC4)cc3)n2)CC1 (stereo not drawn) [Compound 177] | > 7.00 | < 5.30 |
| C=CC(=O)N[C@H]1CCN(c2nc(Nc3ccc(CCN4CCCC4)cc3)c(C(N)=O)cc2F)C1 [Compound 179, 6-((S)-3-Acryloylamino-pyrrolidin-1-yl)-5-fluoro-2-[4-(2-pyrrolidin-1-yl-ethyl)-phenylamino]-nicotinamide] | > 7.00 | > 7.00 |
| C=CC(=O)N[C@H]1CCN(c2nc(Nc3ccc(N4CC(C)OC(C)C4)cc3)c(C(N)=O)cc2F)C1 (stereo partly drawn) [Compound 188, 6-((S)-3-Acryloylamino-pyrrolidin-1-yl)-2-[4-(2,6-dimethyl-morpholin-4-yl)-phenylamino]-5-fluoro-nicotinamide] | > 7.00 | > 7.00 |
| C=CC(=O)N1CCC(c2ccc(C(N)=O)c(Nc3ccc(C(=O)N4CCCC(NC(=O)CCOCCOCCOCCOCCNC(=O)CCCC[C@@H]5SCC6NC(=O)NC65)C4)cc3)n2)CC1 (stereo partly drawn) [Compound 191, 6-(1-acryloylpiperidin-4-yl)-2-((4-(3-(17-oxo-21-((4S)-2-oxohexahydro-1H-thieno[3,4-d]imidazol-4-yl)-4,7,10,13-tetraoxa-16-azahenicosanamido)piperidine-1-carbonyl)phenyl)amino)nicotinamide] | > 7.00 | < 5.30 |

Continued, in another order:

| pIC50 [1] | SMILES | pIC50 [2] |
| --- | --- | --- |
| > 7.00 | C=CC(=O)N[C@@H]1CN(c2ccc(C(N)=O)c(Nc3ccc(CCN4CCCC4)cc3)n2)CC12CC2 [Compound 7, 6-((S)-7-Acryloylamino-5-aza-spiro[2.4]hept-5-yl)-2-[4-(2-pyrrolidin-1-yl-ethyl)-phenylamino]-nicotinamide] | > 7.00 |
| > 7.00 | C=CC(=O)N1CCC(c2ccc(C(N)=O)c(Nc3ccc(OC4CCN(C)CC4)cc3)n2)CC1 [Compound 10, 1′-Acryloyl-6-[4-(1-methyl-piperidin-4-yloxy)-phenylamino]-1′,2′,3′,4′,5′,6′-hexahydro-[2,4′]bipyridinyl-5-carboxylic acid amide] | > 7.00 |
| > 7.00 | C=CC(=O)N1CCN(c2ccc(C(N)=O)c(Nc3ccc(CCN4CCCC4)cc3)n2)CC1 [Compound 12, 6-(4-Acryloyl-piperazin-1-yl)-2-[4-(2-pyrrolidin-1-yl-ethyl)-phenylamino]-nicotinamide] | > 7.00 |
| > 7.00 | C=CC(=O)N[C@H]1CCN(c2ccc(C(N)=O)c(Nc3ccc(C4CCN(C)CC4)cc3)n2)C1 [Compound 14, 6-((S)-3-Acryloylamino-pyrrolidin-1-yl)-2-[4-(1-methyl-piperidin-4-yl)-phenylamino]-nicotinamide] | > 7.00 |
| > 7.00 | C=CC(=O)N[C@H]1CCN(c2ccc(C(N)=O)c(Nc3ccc(CCN4CCCC4)cc3)n2)C1 [Compound 16, 6-((S)-3-Acryloylamino-pyrrolidin-1-yl)-2-[4-(2-pyrrolidin-1-yl-ethyl)-phenylamino]-nicotinamide] | > 7.00 |
| > 7.00 | C=CC(=O)N1CC=C(c2ccc(C(N)=O)c(Nc3ccc(CCN4CCCC4)cc3)n2)CC1 [Compound 17, 1′-Acryloyl-6-[4-(2-pyrrolidin-1-yl-ethyl)-phenylamino]-1′,2′,3′,6′-tetrahydro-[2,4′]bipyridinyl-5-carboxylic acid amide] | > 7.00 |
| > 7.00 | C=CC(=O)N1CCC(c2ccc(C(N)=O)c(Nc3ccc(CCN4CCCC4)cc3)n2)CC1 [Compound 18, 1′-Acryloyl-6-[4-(2-pyrrolidin-1-yl-ethyl)-phenylamino]-1′,2′,3′,4′,5′,6′-hexahydro-[2,4′]bipyridinyl-5-carboxylic acid amide] | > 7.00 |
| > 7.00 | C=CC(=O)N1CCC2(CCN(c3ccc(C(N)=O)c(Nc4ccc(CCN5CCCC5)cc4)n3)C2)C1 (stereo not drawn) [Compound 20, 6-(7-Acryloyl-2,7-diaza-spiro[4.4]non-2-yl)-2-[4-(2-pyrrolidin-1-yl-ethyl)-phenylamino]-nicotinamide] | > 7.00 |
| > 7.00 | C=CC(=O)N1CCC(c2ccc(C(N)=O)c(Nc3ccc(C(=O)N4CCCCC4)cc3)n2)CC1 [Compound 22, 1′-Acryloyl-6-[4-(piperidine-1-carbonyl)-phenylamino]-1′,2′,3′,4′,5′,6′-hexahydro-[2,4′]bipyridinyl-5-carboxylic acid amide] | > 7.00 |
| > 7.00 | C=CC(=O)N(C)[C@H]1CCN(c2ccc(C(N)=O)c(Nc3ccc(CCN4CCCC4)cc3)n2)C1 [Compound 30, 6-[(S)-3-(Acryloyl-methyl-amino)-pyrrolidin-1-yl]-2-[4-(2-pyrrolidin-1-yl-ethyl)-phenylamino]-nicotinamide] | > 7.00 |
| > 7.00 | C=CC(=O)N[C@H]1CCN(c2ccc(C(N)=O)c(Nc3ccc(N4CCCCC4)cc3)n2)C1 [Compound 31, 6-((S)-3-Acryloylamino-pyrrolidin-1-yl)-2-(4-piperidin-1-yl-phenylamino)-nicotinamide] | 6.00 to 7.00 |
| > 7.00 | C=CC(=O)N[C@H]1CCN(c2ccc(C(N)=O)c(Nc3ccc(N4CCOCC4)nc3)n2)C1 [Compound 38, 6-((S)-3-Acryloylamino-pyrrolidin-1-yl)-2-(6-morpholin-4-yl-pyridin-3-ylamino)-nicotinamide] | 6.00 to 7.00 |
